The record followed here is ChEMBL document CHEMBL3120052, “HCV polymerase inhibitors” (ACS Med Chem Lett, 2014).

What is called EC50 is the concentration that produces a half-maximal response.

The test system of the test is Hepatitis C virus. In words: Antiviral activity against HCV genotype 1b expressing wild type NS3-NS5B infected in HuH7 luc/neo cells assessed as inhibition of RNA replication after 3 days by luciferase reporter gene assay. It is filed as functional, organism-based, Hepacivirus hominis. Particulars: Huh-7, 72 h. On the technique in general: Reporter assays use an easily measured gene product as a stand-in for the process of interest.

Consider `C[C@H](NP(=O)(OC[C@H]1O[C@@H](n2ccc(=O)[nH]c2=O)[C@](C)(N)[C@@H]1O)Oc1ccccc1)C(=O)OC1CCCCCCC1` (stereo partly drawn), for which the EC50 came out at 290 nM. Then `C[C@H](NP(=O)(OC[C@H]1O[C@@H](n2ccc(=O)[nH]c2=O)[C@](C)(N)[C@@H]1O)Oc1ccccc1)C(=O)OCCC(C)(C)C` (stereo partly drawn), with 490 nM. Then `C[C@H](NP(=O)(OC[C@H]1O[C@@H](n2ccc(=O)[nH]c2=O)[C@](C)(N)[C@@H]1O)Oc1ccccc1)C(=O)OC1CCCCCC1` (stereo partly drawn), with 190 nM; and `C[C@H](NP(=O)(OC[C@H]1O[C@@H](n2ccc(=O)[nH]c2=O)[C@](C)(NC(=O)OC(C)(C)C)[C@@H]1O)Oc1ccccc1)C(=O)OC1CCCCCC1` (stereo partly drawn), with 3000 nM.

As for `C[C@H](NP(=O)(OC[C@H]1O[C@@H](n2ccc(=O)[nH]c2=O)[C@](C)(NC(=O)OC(C)(C)C)[C@@H]1O)Oc1ccccc1)C(=O)OC1CCCCCCC1` (stereo partly drawn), the EC50 was determined as 15000 nM. In the case of `C[C@H](NP(=O)(OC[C@H]1O[C@@H](n2ccc(=O)[nH]c2=O)[C@](C)(NC(=O)OC(C)(C)C)[C@@H]1O)Oc1ccccc1)C(=O)OCCC(C)(C)C` (stereo partly drawn), the half-maximal effective concentration (EC50) worked out at 2300 nM. With `C[C@H](NP(=O)(OC[C@H]1O[C@@H](n2ccc(=O)[nH]c2=O)[C@](C)(NC(=O)OC(C)(C)C)[C@@H]1O)Oc1ccccc1)C(=O)OC1CCCC1` (stereo partly drawn), the EC50 was determined as 4700 nM. Take `C[C@H](NP(=O)(OC[C@H]1O[C@@H](n2ccc(=O)[nH]c2=O)[C@](C)(N)[C@@H]1O)Oc1ccccc1)C(=O)OC1CCCC1` (stereo partly drawn): the EC50 is 470 nM.
